Experimental data: patent US20250129070A1, “BIFUNCTIONAL ANDROGEN RECEPTOR COMPOUNDS” (priority 2023, published 2025)

Key:
[1] = system: AR / CBP ternary complex; assay: Ternary complex formation assay (sandwich ELISA, AR capture / CBP detection) in VCaP cell lysates; format: cell-based; settings: 1.5 hours treatment, sandwich ELISA (AR capture, CBP or p300 detection)
In short: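 VCaP cells (50K/well, 5% charcoal-stripped FBS, ≥3 days) treated with bifunctional compound for 1.5 h, then lysed 30 min at 4 °C. AR captured on anti-AR (AR 441) plates; bound CBP or p300 detected by rabbit mAb plus HRP secondary. QuantaRed chemifluorescence read at ex 570/em 585, immediately and at 5 and 15 min.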

[2] = system: VCaP cells; assay: VCaP growth inhibition assay; format: cell-based; settings: 30 pM R1881, 9 days, CTG
In short: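 VCaP cells in phenol red-free DMEM/5% CSS, pre-incubated 72 h, then stimulated with R1881 (final 30 pM) and treated with 1:5 serial dilutions (final 100 nM to 10 fM) for 9 days at 37 °C. Viability by CellTiter-Glo luminescence; IC50 from 4-parameter logistic fit of RLU vs concentration.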

Compound	EC50 [1]	IC50 [2]
CC(=O)N1CCc2c(c(N3CCCc4cc(-c5cnn(C)c5)c(C(F)F)cc43)nn2C2CCN(CC3C(C)CN(c4ncc(C(=O)NC5C(C)(C)C(Oc6ccc(C#N)c(Cl)c6C)C5(C)C)cn4)CC3C)CC2)C1 (stereo not drawn) [Compound 460, 2-[4-[[4-[5-acetyl-3-[7-(difluoromethyl)-6-(1-methylpyrazol-4-yl)-3,4-dihydro-2H-quinolin-1-yl]-6,7-dihydro-4H-pyrazolo[4,3-c]pyridin-1-yl]-1-piperidyl]methyl]-3,5-dimethyl-1-piperidyl]-N-[3-(3-chloro-4-cyano-2-methyl-phenoxy)-2,2,4,4-tetramethyl-cyclobutyl]pyrimidine-5-carboxamide]	< 1 nM	≤ 0.1 nM
C[C@@H]1CC(=O)Nc2cccc(-c3ccc4c(c3)c(-c3cnn(C)c3)nn4CC3CCN(c4ncc(C(=O)NC5C(C)(C)C(Oc6ccc(C#N)c(Cl)c6)C5(C)C)cn4)CC3)c2N1 (stereo partly drawn) [Compound 58, N-[3-(3-chloro-4-cyano-phenoxy)-2,2,4,4-tetramethyl-cyclobutyl]-2-[4-[[5-[(4R)-4-methyl-2-oxo-1,3,4,5-tetrahydro-1,5-benzodiazepin-6-yl]-3-(1-methylpyrazol-4-yl)indazol-1-yl]methyl]-1-piperidyl]pyrimidine-5-carboxamide]	> 100 nM	> 100 nM
COc1cc(OC2C(C)(C)C(NC(=O)c3ccc(N4CC5CC4CC5CN4CCC(n5nc(N6CCCc7cc(-c8cnn(C)c8)c(C(F)F)cc76)c6c5CCN(C(C)=O)C6)CC4)cc3)C2(C)C)ccc1C#N (stereo not drawn) [Compound 255, 4-[5-[[4-[5-acetyl-3-[7-(difluoromethyl)-6-(1-methylpyrazol-4-yl)-3,4-dihydro-2H-quinolin-1-yl]-6,7-dihydro-4H-pyrazolo[4,3-c]pyridin-1-yl]-1-piperidyl]methyl]-2-azabicyclo[2.2.1]heptan-2-yl]-N-[3-(4-cyano-3-methoxy-phenoxy)-2,2,4,4-tetramethyl-cyclobutyl]benzamide]	< 1 nM	0.1 to 1 nM
CC(=O)N1CCc2c(c(-c3cccc4cc(-c5ccc(CCC6CC7(C6)CN(c6ncc(C(=O)NC8C(C)(C)C(Oc9ccc(C#N)c(Cl)c9)C8(C)C)cn6)C7)nc5)ncc34)nn2C)C1 (stereo not drawn) [Compound 229, 2-[6-[2-[5-[8-(5-acetyl-1-methyl-6,7-dihydro-4H-pyrazolo[4,3-c]pyridin-3-yl)-3-isoquinolyl]-2-pyridyl]ethyl]-2-azaspiro[3.3]heptan-2-yl]-N-[3-(3-chloro-4-cyano-phenoxy)-2,2,4,4-tetramethyl-cyclobutyl]pyrimidine-5-carboxamide]	1 to 10 nM	0.1 to 1 nM
CC(=O)N1CCc2c(c(N3CCCc4cc(-c5cnn(C)c5)c(C)cc43)nn2C2CCN(C3CCC4(CC3)CN(c3ncc(C(=O)NC5C(C)(C)C(Oc6ccc(C#N)c(C)c6C)C5(C)C)cn3)C4)CC2)C1 (stereo not drawn) [Compound 472, 2-[7-[4-[5-acetyl-3-[7-methyl-6-(1-methylpyrazol-4-yl)-3,4-dihydro-2H-quinolin-1-yl]-6,7-dihydro-4H-pyrazolo[4,3-c]pyridin-1-yl]-1-piperidyl]-2-azaspiro[3.5]nonan-2-yl]-N-[3-(4-cyano-2,3-dimethyl-phenoxy)-2,2,4,4-tetramethyl-cyclobutyl]pyrimidine-5-carboxamide]	< 1 nM	0.1 to 1 nM
COc1cc(OC2C(C)(C)C(NC(=O)c3ccc(N4CCC(C)(N5CCC(n6nc(N7CCCc8cc(-c9cnn(C)c9)c(C(F)F)cc87)c7c6CCN(C(C)=O)C7)CC5)CC4)cc3)C2(C)C)ccc1C#N (stereo not drawn) [Compound 305, 4-[4-[4-[5-acetyl-3-[7-(difluoromethyl)-6-(1-methylpyrazol-4-yl)-3,4-dihydro-2H-quinolin-1-yl]-6,7-dihydro-4H-pyrazolo[4,3-c]pyridin-1-yl]-1-piperidyl]-4-methyl-1-piperidyl]-N-[3-(4-cyano-3-methoxy-phenoxy)-2,2,4,4-tetramethyl-cyclobutyl]benzamide]	< 1 nM	≤ 0.1 nM
CC(=O)N1CCc2c(c(N3CCCc4cc(-c5cnn(C)c5)c(C(F)F)cc43)nn2C2CCN(C[C@H]3CCN(c4ncc(C(=O)NC5C(C)(C)C(Oc6ccc(C#N)c(Cl)c6)C5(C)C)cn4)C[C@H]3C)CC2)C1 (stereo partly drawn) [Compound 364]	< 1 nM	≤ 0.1 nM
CC(=O)N1CCc2c(c(N3CCCc4cc(-c5cnn(C)c5)c(C(F)F)cc43)nn2C2CCN(C3CN(c4ncc(C(=O)NC5C(C)(C)C(Oc6ccc(C#N)c(Cl)c6)C5(C)C)cn4)C3)CC2)C1 (stereo not drawn) [Compound 333, 2-[3-[4-[5-acetyl-3-[7-(difluoromethyl)-6-(1-methylpyrazol-4-yl)-3,4-dihydro-2H-quinolin-1-yl]-6,7-dihydro-4H-pyrazolo[4,3-c]pyridin-1-yl]-1-piperidyl]azetidin-1-yl]-N-[3-(3-chloro-4-cyano-phenoxy)-2,2,4,4-tetramethyl-cyclobutyl]pyrimidine-5-carboxamide]	> 100 nM	≤ 0.1 nM
COc1cc(OC2C(C)(C)C(NC(=O)c3ccc(N4CCC5(CC(N6CCC(n7nc(N8CCCc9cc(-c%10cnn(C)c%10)c(C(F)F)cc98)c8c7CCN(C(C)=O)C8)CC6)C5)C4)cc3)C2(C)C)ccc1C#N (stereo not drawn) [Compound 347, 4-[2-[4-[5-acetyl-3-[7-(difluoromethyl)-6-(1-methylpyrazol-4-yl)-3,4-dihydro-2H-quinolin-1-yl]-6,7-dihydro-4H-pyrazolo[4,3-c]pyridin-1-yl]-1-piperidyl]-6-azaspiro[3.4]octan-6-yl]-N-[3-(4-cyano-3-methoxy-phenoxy)-2,2,4,4-tetramethyl-cyclobutyl]benzamide]	< 1 nM	≤ 0.1 nM
CC(=O)N1CCc2c(c(-c3cccc4cc(-c5ccc(C(=O)NC6CCN(c7ncc(C(=O)NC8C(C)(C)C(Oc9ccc(C#N)c(Cl)c9)C8(C)C)cn7)CC6)nc5)ncc34)nn2C2CCOCC2)C1 (stereo not drawn) [Compound 180, 2-[4-[[5-[8-(5-acetyl-1-tetrahydropyran-4-yl-6,7-dihydro-4H-pyrazolo[4,3-c]pyridin-3-yl)-3-isoquinolyl]pyridine-2-carbonyl]amino]-1-piperidyl]-N-[3-(3-chloro-4-cyano-phenoxy)-2,2,4,4-tetramethylcyclobutyl]pyrimidine-5-carboxamide]	< 1 nM	≤ 0.1 nM
CC(=O)N1CCc2c(c(N3CCCc4cc(-c5cnn(C)c5)c(C(F)F)cc43)nn2C2CCC3(CCCN(c4ncc(C(=O)NC5C(C)(C)C(Oc6ccc(C#N)c(Cl)c6)C5(C)C)cn4)C3)CC2)C1 (stereo not drawn) [Compound 412, 2-[9-[5-acetyl-3-[7-(difluoromethyl)-6-(1-methylpyrazol-4-yl)-3,4-dihydro-2H-quinolin-1-yl]-6,7-dihydro-4H-pyrazolo[4,3-c]pyridin-1-yl]-2-azaspiro[5.5]undecan-2-yl]-N-[3-(3-chloro-4-cyano-phenoxy)-2,2,4,4-tetramethyl-cyclobutyl]pyrimidine-5-carboxamide]	> 100 nM	> 100 nM
COc1cc(OC2C(C)(C)C(NC(=O)c3ccc(N4CCC(CN5CCC(n6nc(-c7cccc8cc(-c9cnn(C)c9)ncc78)c7c6CCN(C(C)=O)C7)CC5)CC4)cc3)C2(C)C)ccc1C#N (stereo not drawn) [Compound 253, 4-[4-[[4-[5-acetyl-3-[3-(1-methylpyrazol-4-yl)-8-isoquinolyl]-6,7-dihydro-4H-pyrazolo[4,3-c]pyridin-1-yl]-1-piperidyl]methyl]-1-piperidyl]-N-[3-(4-cyano-3-methoxy-phenoxy)-2,2,4,4-tetramethyl-cyclobutyl]benzamide]	< 1 nM	≤ 0.1 nM
